Data taken from PubChem BioAssay (NCI).
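In this assay, cells in 96-well plates receive the compound at five concentrations for 48 hours. Endpoints are linearly interpolated between the surrounding concentrations. GI50 marks 50% less growth. TGI is the concentration that stops growth completely.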

Assays:
Experiment in all cases: NCI anticancer screen, dose series, 48 h
[1] = tested on: 786-0 renal
[2] = tested on: A498 renal
[3] = tested on: A549 NSCLC
[4] = tested on: ACHN renal
[5] = tested on: BT-549 breast
[6] = tested on: CAKI-1 renal
[7] = tested on: CCRF-CEM leukemia
[8] = tested on: COLO 205 colon
[9] = tested on: DU-145 prostate
[10] = tested on: EKVX NSCLC
[11] = tested on: HCT-116 colon
[12] = tested on: HCT-15 colon
[13] = tested on: HOP-62 NSCLC
[14] = tested on: HOP-92 NSCLC
[15] = tested on: HS 578T breast
[16] = tested on: HT29 colon
[17] = tested on: IGROV1 ovarian
[18] = tested on: K-562 leukemia
[19] = tested on: KM12 colon
[20] = tested on: LOX IMVI melanoma
[21] = tested on: M14 melanoma
[22] = tested on: MALME-3M melanoma
[23] = tested on: MCF7 breast
[24] = tested on: MDA-MB-231 breast
[25] = tested on: MDA-MB-435
[26] = tested on: MOLT-4 leukemia
[27] = tested on: NCI-H226 lung
[28] = tested on: NCI-H23 lung
[29] = tested on: NCI-H460 lung
[30] = tested on: NCI-H522 lung
[31] = tested on: OVCAR-3 ovarian
[32] = tested on: OVCAR-4 ovarian
[33] = tested on: OVCAR-5 ovarian
[34] = tested on: OVCAR-8 ovarian
[35] = tested on: PC-3 prostate
[36] = tested on: RPMI-8226 leukemia
[37] = tested on: RXF 393 renal
[38] = tested on: SF-268 CNS
[39] = tested on: SF-295 CNS
[40] = tested on: SF-539 CNS
[41] = tested on: SK-MEL-2 melanoma
[42] = tested on: SK-MEL-28 melanoma
[43] = tested on: SK-MEL-5 melanoma
[44] = tested on: SK-OV-3 ovarian
[45] = tested on: SN12C renal
[46] = tested on: SNB-19 CNS
[47] = tested on: SNB-75 CNS
[48] = tested on: SW-620 colon
[49] = tested on: T-47D breast
[50] = tested on: TK-10 renal
[51] = tested on: U251 CNS
[52] = tested on: UACC-257 melanoma
[53] = tested on: UACC-62 melanoma
[54] = tested on: UO-31 renal
[55] = tested on: HCC-2998 colon
[56] = tested on: HL-60(TB) leukemia
[57] = tested on: NCI/ADR-RES ovarian
[58] = tested on: SR leukemia

Structure (SMILES): O=C(NN1C(=O)CSC1c1cccc(Cl)c1)C(O)c1ccccc1 (stereo not drawn)
- GI50 [1]: > 100 µM
- TGI [1]: > 100 µM
- GI50 [2]: > 100 µM
- TGI [2]: > 100 µM
- GI50 [3]: 35.9 µM
- TGI [3]: > 100 µM
- GI50 [4]: 67.4 µM
- TGI [4]: > 100 µM
- GI50 [5]: > 100 µM
- TGI [5]: > 100 µM
- GI50 [6]: 90.3 µM
- TGI [6]: > 100 µM
- GI50 [7]: > 100 µM
- TGI [7]: > 100 µM
- GI50 [8]: > 100 µM
- TGI [8]: > 100 µM
- GI50 [9]: 83.4 µM
- TGI [9]: > 100 µM
- GI50 [10]: 64.5 µM
- TGI [10]: > 100 µM
- GI50 [11]: 83.8 µM
- TGI [11]: > 100 µM
- GI50 [12]: 68.6 µM
- TGI [12]: > 100 µM
- GI50 [13]: > 100 µM
- TGI [13]: > 100 µM
- GI50 [14]: > 100 µM
- TGI [14]: > 100 µM
- GI50 [15]: > 100 µM
- TGI [15]: > 100 µM
- GI50 [16]: > 100 µM
- TGI [16]: > 100 µM
- GI50 [17]: > 100 µM
- TGI [17]: > 100 µM
- GI50 [18]: 27.4 µM
- TGI [18]: > 100 µM
- GI50 [19]: 90.4 µM
- TGI [19]: > 100 µM
- GI50 [20]: > 100 µM
- TGI [20]: > 100 µM
- GI50 [21]: > 100 µM
- TGI [21]: > 100 µM
- GI50 [22]: > 100 µM
- TGI [22]: > 100 µM
- GI50 [23]: > 100 µM
- TGI [23]: > 100 µM
- GI50 [24]: 87.7 µM
- TGI [24]: > 100 µM
- GI50 [25]: > 100 µM
- TGI [25]: > 100 µM
- GI50 [26]: 77.8 µM
- TGI [26]: > 100 µM
- GI50 [27]: 81 µM
- TGI [27]: > 100 µM
- GI50 [28]: 56.3 µM
- TGI [28]: > 100 µM
- GI50 [29]: 42.8 µM
- TGI [29]: > 100 µM
- GI50 [30]: 67.9 µM
- TGI [30]: > 100 µM
- GI50 [31]: 33.8 µM
- TGI [31]: > 100 µM
- GI50 [32]: 66.7 µM
- TGI [32]: > 100 µM
- GI50 [33]: > 100 µM
- TGI [33]: > 100 µM
- GI50 [34]: 83.5 µM
- TGI [34]: > 100 µM
- GI50 [35]: 60.6 µM
- TGI [35]: > 100 µM
- GI50 [36]: 23.1 µM
- TGI [36]: > 100 µM
- GI50 [37]: 59.3 µM
- TGI [37]: > 100 µM
- GI50 [38]: > 100 µM
- TGI [38]: > 100 µM
- GI50 [39]: 22.4 µM
- TGI [39]: > 100 µM
- GI50 [40]: > 100 µM
- TGI [40]: > 100 µM
- GI50 [41]: > 100 µM
- TGI [41]: > 100 µM
- GI50 [42]: > 100 µM
- TGI [42]: > 100 µM
- GI50 [43]: > 100 µM
- TGI [43]: > 100 µM
- GI50 [44]: > 100 µM
- TGI [44]: > 100 µM
- GI50 [45]: > 100 µM
- TGI [45]: > 100 µM
- GI50 [46]: > 100 µM
- TGI [46]: > 100 µM
- GI50 [47]: 65 µM
- TGI [47]: > 100 µM
- GI50 [48]: > 100 µM
- TGI [48]: > 100 µM
- GI50 [49]: 67.7 µM
- TGI [49]: > 100 µM
- GI50 [50]: > 100 µM
- TGI [50]: > 100 µM
- GI50 [51]: 59.2 µM
- TGI [51]: > 100 µM
- GI50 [52]: > 100 µM
- TGI [52]: > 100 µM
- GI50 [53]: 23.1 µM
- TGI [53]: > 100 µM
- GI50 [54]: 75.5 µM
- TGI [54]: > 100 µM

Structure (SMILES): COc1cc([C@@H]2c3cc4c(cc3[C@H](OC(C)=O)[C@H]3COC(=O)[C@@H]23)OCO4)cc(OC)c1OC
- GI50 [1]: 0.379 µM
- TGI [1]: > 100 µM
- GI50 [2]: 0.175 µM
- TGI [2]: 0.583 µM
- GI50 [3]: 0.463 µM
- TGI [3]: > 100 µM
- GI50 [4]: 0.766 µM
- TGI [4]: > 100 µM
- GI50 [5]: 0.419 µM
- TGI [5]: > 68.5 µM
- GI50 [6]: 0.537 µM
- TGI [6]: > 100 µM
- GI50 [7]: 0.338 µM
- TGI [7]: > 100 µM
- GI50 [8]: 0.272 µM
- TGI [8]: 0.678 µM
- GI50 [9]: 0.245 µM
- TGI [9]: 0.649 µM
- GI50 [10]: 0.489 µM
- TGI [10]: > 100 µM
- GI50 [55]: 0.285 µM
- GI50 [11]: 0.29 µM
- TGI [11]: 2.63 µM
- GI50 [12]: 0.371 µM
- TGI [12]: > 100 µM
- GI50 [56]: 0.235 µM
- GI50 [13]: 0.4 µM
- TGI [13]: > 100 µM
- GI50 [14]: 2.55 µM
- TGI [14]: > 100 µM
- GI50 [15]: 0.253 µM
- TGI [15]: 0.682 µM
- GI50 [16]: 0.343 µM
- GI50 [17]: 0.401 µM
- TGI [17]: > 62.5 µM
- GI50 [18]: 0.253 µM
- TGI [18]: > 100 µM
- GI50 [19]: 0.298 µM
- GI50 [20]: 0.551 µM
- TGI [20]: > 100 µM
- GI50 [21]: 0.242 µM
- TGI [21]: 5.3 µM
- TGI [22]: > 100 µM
- GI50 [23]: 0.334 µM
- TGI [23]: > 100 µM
- GI50 [24]: 0.388 µM
- TGI [24]: 3.44 µM
- GI50 [25]: 0.0787 µM
- TGI [25]: 0.469 µM
- GI50 [26]: 0.438 µM
- TGI [26]: > 100 µM
- GI50 [27]: 3.82 µM
- GI50 [28]: 0.333 µM
- GI50 [29]: 0.322 µM
- TGI [29]: 3.3 µM
- GI50 [30]: 0.15 µM
- TGI [30]: 0.448 µM
- GI50 [57]: 0.336 µM
- GI50 [31]: 0.317 µM
- GI50 [32]: 2.11 µM
- TGI [32]: > 100 µM
- GI50 [33]: 0.523 µM
- TGI [33]: > 100 µM
- GI50 [34]: 0.469 µM
- TGI [34]: > 100 µM
- GI50 [35]: 0.318 µM
- TGI [35]: > 100 µM
- GI50 [36]: 0.445 µM
- TGI [36]: > 100 µM
- GI50 [37]: 0.235 µM
- TGI [37]: 0.591 µM
- GI50 [38]: 0.358 µM
- GI50 [39]: 0.296 µM
- TGI [39]: > 100 µM
- GI50 [40]: 0.216 µM
- TGI [40]: 0.526 µM
- GI50 [41]: 0.342 µM
- GI50 [42]: 0.729 µM
- TGI [42]: > 100 µM
- GI50 [43]: 0.298 µM
- TGI [43]: 1.24 µM
- GI50 [44]: 0.334 µM
- TGI [44]: > 100 µM
- GI50 [45]: 0.759 µM
- TGI [45]: > 100 µM
- GI50 [46]: 0.393 µM
- TGI [46]: > 100 µM
- TGI [47]: > 100 µM
- GI50 [58]: 0.153 µM
- TGI [58]: > 100 µM
- GI50 [48]: 0.36 µM
- TGI [48]: > 100 µM
- TGI [50]: > 100 µM
- GI50 [51]: 0.377 µM
- TGI [51]: > 100 µM
- TGI [52]: > 100 µM
- GI50 [53]: 0.405 µM
- TGI [53]: > 100 µM
- GI50 [54]: 0.493 µM
- TGI [54]: > 100 µM
